Patent US20240217957A1, “HETEROCYCLIC COMPOUND AND USE THEREOF” (TAKEDA PHARMACEUTICAL COMPANY LIMITED, priority 2022, published 2024)

Experiments:
[1] = biological target: T1, human OX2 receptor (Homo sapiens, UniProt O43614); assay: Measurement of orexin type 2 receptor agonist activity (calcium fluorescence, Fluo-4 AM, FDSS); type: cell-based; settings: compound at 3 μM; CHO cells forcibly expressing human OX2 receptor; DMSO = 0%, 10 nM orexin A (human) = 100%
T1 construct: expressed in transfected cells
T1 sequence (O43614 1-444): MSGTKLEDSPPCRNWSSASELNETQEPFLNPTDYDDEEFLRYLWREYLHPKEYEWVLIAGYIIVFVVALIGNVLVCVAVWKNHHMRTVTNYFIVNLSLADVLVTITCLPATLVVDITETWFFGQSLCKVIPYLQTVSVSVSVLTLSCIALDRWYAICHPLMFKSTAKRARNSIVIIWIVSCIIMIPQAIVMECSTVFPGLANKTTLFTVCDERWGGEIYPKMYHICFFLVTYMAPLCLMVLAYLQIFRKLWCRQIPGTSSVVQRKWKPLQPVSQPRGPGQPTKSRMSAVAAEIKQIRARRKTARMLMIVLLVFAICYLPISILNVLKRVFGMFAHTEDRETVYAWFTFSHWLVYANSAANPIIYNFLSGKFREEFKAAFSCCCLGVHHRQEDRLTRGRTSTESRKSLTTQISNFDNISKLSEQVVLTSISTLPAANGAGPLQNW
How it was run: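 Agonist response is expressed as % of the fluorescence change given by 10 nM human orexin A, with DMSO as 0%, read over 1 min 40 s on FDSS after compound addition. Cells: stable human OX2 (1-444) CHO-K1 clones, dye-loaded with Fluo-4 AM plus probenecid in HEPES-buffered HBSS with 0.1% BSA.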

[2] = tested on: cynomolgus monkeys; assay: Evaluation of wake-promoting effects in cynomolgus monkeys (EEG, EMG, locomotor activity); type: in vivo, cynomolgus monkey; settings: 3 mg/kg p.o. at zeitgeber time 12, male cynomolgus monkeys, time spent in wakefulness for 4 hours after administration
Experimental: The wake-promoting effects were evaluated by measuring the electroencephalogram (EEG), electromyogram (EMG) and locomotor activity in cynomolgus monkeys. Under isoflurane anesthesia (0.5-5%, Pfizer Japan Inc., Tokyo, Japan), male cynomolgus monkeys (2-3 years old, Hamri Co., Ltd., Ibaraki, Japan) were surgically implanted with radio-telemetry transmitters (L03-F3, Data Sciences International Inc., MN, USA). The two EEG electrodes were stereotaxically positioned at the parietal area and secured to the cranium with stainless-steel screws in contact with the dura. Bilateral EMG electrodes were implanted into the back cervical muscles.
After at least a 1-month recovery period in home cages, the monkeys were habituated to the recording chamber (an acrylic cage 60 W×55 D×75 H (cm)) located in a soundproof and electrically shielded room by the time animals sleep sufficiently in the experimental room. Cortical EEG, EMG and locomotor activity were recorded using the telemetry system (PhysioTel Digital telemetry platform, Data Sciences International Inc.). The signals were semi-automatically scored in 20-second epochs by a sleep scoring system (SleepSign, Kissei Comtec Co., Ltd., Nagano, Japan).
Test compound (3 mg/kg) suspended in 0.5% methylcellulose aqueous solution or vehicle (i.e., 0.5% methylcellulose aqueous solution) was administered orally (p.o.) to monkeys at zeitgeber time 12 in a volume of 5 mL/kg body weight with a pretest-posttest design (n=2), and then EEG, EMG and locomotor activity were recorded. The time spent in wakefulness for 4 hours after administration (% of vehicle treatment) was calculated by using SleepSign.

Structure (SMILES)	OX2R agonist activity (3 μM, %) [1]	Wakefulness time (% of vehicle treatment) (Mean, n = 2) [2]
Cc1cnc([C@@H]2CC(N3C[C@@H](NS(C)(=O)=O)C(F)(F)C3)=NO2)c(-c2c(F)cc(F)cc2F)c1 [Example 11, N-[(3R)-4,4-difluoro-1-{(5S)-5-[5-methyl-3-(2,4,6-trifluorophenyl)pyridin-2-yl]-4,5-dihydro-1,2-oxazol-3-yl}pyrrolidin-3-yl]methanesulfonamide]	96%	638.80 % of vehicle treatment
CS(=O)(=O)N[C@@H]1CN(C2=NO[C@](CF)(c3ncc(F)cc3-c3c(F)cccc3F)C2)CC1(F)F [Example 109, N-[(3R)-1-{(5S)-5-[3-(2,6-difluorophenyl)-5-fluoropyridin-2-yl]-5-(fluoromethyl)-4,5-dihydro-1,2-oxazol-3-yl}-4,4-difluoropyrrolidin-3-yl]methanesulfonamide]	101%	558.37 % of vehicle treatment
O=S(=O)(CF)N[C@@H]1CN(C2=NO[C@](CF)(c3ncc(F)cc3-c3c(F)cccc3F)C2)CC1(F)F [Example 149, N-[(3R)-1-{(5S)-5-[3-(2,6-difluorophenyl)-5-fluoropyridin-2-yl]-5-(fluoromethyl)-4,5-dihydro-1,2-oxazol-3-yl}-4,4-difluoropyrrolidin-3-yl]-1-fluoromethanesulfonamide]	96%	282.21 % of vehicle treatment
O=S(=O)(CF)N[C@@H]1CN(C2=NOC(CF)(c3ncc(F)cc3-c3c(F)cc(F)cc3F)C2)C[C@@H]1F (stereo partly drawn) [Example 163, 1-fluoro-N-[(3R,4S)-4-fluoro-1-{5-(fluoromethyl)-5-[5-fluoro-3-(2,4,6-trifluorophenyl)pyridin-2-yl]-4,5-dihydro-1,2-oxazol-3-yl}pyrrolidin-3-yl]methanesulfonamide]	98%	–
C[C@@]1(c2ncc(F)cc2-c2c(F)cccc2F)CC(N2C[C@@H](NS(C)(=O)=O)C(F)(F)C2)=NO1 [Example 165, N-[(3R)-1-{(5S)-5-[3-(2,6-difluorophenyl)-5-fluoropyridin-2-yl]-5-methyl-4,5-dihydro-1,2-oxazol-3-yl}-4,4-difluoropyrrolidin-3-yl]methanesulfonamide]	100%	716.25 % of vehicle treatment
CS(=O)(=O)N[C@@H]1CN(C2=NOC(c3c(F)cc(F)c(F)c3-c3c(F)cccc3F)C2)C[C@@H]1F (stereo partly drawn) [Example 166, N-{(3R,4S)-4-fluoro-1-[5-(2′,3,5,6,6′-pentafluoro[1,1′-biphenyl]-2-yl)-4,5-dihydro-1,2-oxazol-3-yl]pyrrolidin-3-yl}methanesulfonamide]	102%	–
O=S(=O)(CF)N[C@@H]1CN(C2=NOC(c3c(F)cc(F)cc3-c3c(F)cccc3F)C2)CC1(F)F (stereo partly drawn) [Example 169, N-{(3R)-4,4-difluoro-1-[5-(2′,3,5,6′-tetrafluoro[1,1′-biphenyl]-2-yl)-4,5-dihydro-1,2-oxazol-3-yl]pyrrolidin-3-yl}-1-fluoromethanesulfonamide]	98%	–
O=S(=O)(CF)N[C@@H]1CN(C2=NOC(c3c(F)cccc3-c3c(F)cccc3F)C2)CC1(F)F (stereo partly drawn) [Example 170, N-{(3R)-4,4-difluoro-1-[5-(2′,3,6′-trifluoro[1,1′-biphenyl]-2-yl)-4,5-dihydro-1,2-oxazol-3-yl]pyrrolidin-3-yl}-1-fluoromethanesulfonamide]	102%	–
CS(=O)(=O)N[C@@H]1CN(C2=NOC(c3c(F)cc(Cl)cc3-c3ncc(F)cc3F)C2)CC1(F)F (stereo partly drawn) [Example 171, N-[(3R)-1-{5-[4-chloro-2-(3,5-difluoropyridin-2-yl)-6-fluorophenyl]-4,5-dihydro-1,2-oxazol-3-yl}-4,4-difluoropyrrolidin-3-yl]methanesulfonamide]	109%	–
CS(=O)(=O)N[C@@H]1CN(C2=NOC(c3c(F)cc(F)c(F)c3-c3c(F)cccc3F)C2)CC1(F)F (stereo partly drawn) [Example 172, N-{(3R)-4,4-difluoro-1-[5-(2′,3,5,6,6′-pentafluoro[1,1′-biphenyl]-2-yl)-4,5-dihydro-1,2-oxazol-3-yl]pyrrolidin-3-yl}methanesulfonamide]	99%	–
O=S(=O)(CF)N[C@@H]1CN(C2=NOC(c3c(F)ccc(F)c3-c3c(F)cccc3F)C2)CC1(F)F (stereo partly drawn) [Example 173, N-{(3R)-4,4-difluoro-1-[5-(2′,3,6,6′-tetrafluoro[1,1′-biphenyl]-2-yl)-4,5-dihydro-1,2-oxazol-3-yl]pyrrolidin-3-yl}-1-fluoromethanesulfonamide]	100%	–

Now from value to compound, other results behind:

OX2R agonist activity (3 μM, %) [1]	Structure (SMILES)	Wakefulness time (% of vehicle treatment) (Mean, n = 2) [2]
107%	O=S(=O)(CF)N[C@@H]1CN(C2=NOC(c3c(F)cc(F)c(F)c3-c3c(F)cccc3F)C2)CC1(F)F (stereo partly drawn) [Example 174, N-{(3R)-4,4-difluoro-1-[5-(2′,3,5,6,6′-pentafluoro[1,1′-biphenyl]-2-yl)-4,5-dihydro-1,2-oxazol-3-yl]pyrrolidin-3-yl}-1-fluoromethanesulfonamide]	–
112%	COc1cccc(F)c1-c1cc(C)cc(F)c1C1CC(N2C[C@@H](NS(C)(=O)=O)C(F)(F)C2)=NO1 (stereo partly drawn) [Example 175, N-{(3R)-1-[5-(2′,3-difluoro-6′-methoxy-5-methyl[1,1′-biphenyl]-2-yl)-4,5-dihydro-1,2-oxazol-3-yl]-4,4-difluoropyrrolidin-3-yl}methanesulfonamide]	–
109%	Cc1cc(F)c(C2CC(N3C[C@@H](NS(C)(=O)=O)C(F)(F)C3)=NO2)c(-c2ncccc2F)c1 (stereo partly drawn) [Example 176, N-[(3R)-4,4-difluoro-1-{5-[2-fluoro-6-(3-fluoropyridin-2-yl)-4-methylphenyl]-4,5-dihydro-1,2-oxazol-3-yl}pyrrolidin-3-yl]methanesulfonamide]	–
106%	Cc1cc(F)c(C2CC(N3C[C@@H](NS(=O)(=O)CF)C(F)(F)C3)=NO2)c(-c2ncc(F)cc2F)c1 (stereo partly drawn) [Example 177, N-[(3R)-1-{5-[2-(3,5-difluoropyridin-2-yl)-6-fluoro-4-methylphenyl]-4,5-dihydro-1,2-oxazol-3-yl}-4,4-difluoropyrrolidin-3-yl]-1-fluoromethanesulfonamide]	–
111%	Cc1cc(F)c(C2CC(N3C[C@H](F)[C@H](NS(C)(=O)=O)C3)=NO2)c(-c2ncc(F)cc2F)c1 (stereo partly drawn) [Example 178, N-[(3R,4S)-1-{5-[2-(3,5-difluoropyridin-2-yl)-6-fluoro-4-methylphenyl]-4,5-dihydro-1,2-oxazol-3-yl}-4-fluoropyrrolidin-3-yl]methanesulfonamide]	–
